Reference: patent US20030104507A1, “Method for detection of ATP” (priority 2001, published 2003)

What was measured:
LucPpe2m146 = test: Duration of luminescence (signal stability) and effects of media and sera, DTAB, ± pyrophosphate; assay type: biochemical, Photuris pennsylvanica; conditions: 10 μM sodium pyrophosphate
Protocol: In some embodiments, the compositions of the invention were added to intact cells to lyse them, and then ATP detected. In other embodiments, conditioned culture media were themselves assayed for ATP. However, the various components of media, such as buffers, sugars, amino acids, pH indicators, salts, etc., as well as the various factors found in serum (equine, bovine, etc.) may inhibit luciferase activity.
The luciferase-luciferin reaction was initiated by combining 100 μl of the reagent composition composition with 100 μl cell media with serum, varying final concentrations of DTAB (as indicated below in Table Q) and 1.0 μM ATP was added to each reaction plus or minus 10 μM sodium pyrophosphate in wells of a 96-well microtiter luminometer plate; each experimental condition was prepared in triplicate. At various times after initiating the reaction, rlu values were recorded using an Orion microplate luminometer (Berthold Detection Systems; Pforzheim, Germany).

[1] = system: ATPase activity endogenous to L929 cell lysate; test: Detergent inhibition of ATPase endogenous to L929 cell lysate (ATP remaining by luciferase luminescence, 22° C.); assay type: biochemical; parameters: key to Relative ATPase Activity, slope det/slope lysate: slope with detergent / slope without; ≥1.0 = 100% activity, 0.5 = 50%
Protocol: Three separate detergents in each of four detergent classes were tested: anionic [SDS (Sodium dodecyl sulfate), Bioterge (an α olefin sulfate), and sodium deoxycholate], nonionic [TRITON X-100, BigCHAP (N,N-bis(3-D-Gluconamidopropyl)cholamide) and THESIT (polyethylene glycol 400 dodecyl ether, Fluka, #88315)], cationic [BDDABr (Benzyldimethyldodecylammonium bromide), CTAB (Cetyltrimethylammonium bromide), and DTAB (dodecyltrimethylammonium bromide)] and zwitterionic [CHAPS (3[(3-Cholamidopropyl)dimethylammonio]propanesulfonic acid), CHAPSO (3-([3-Cholamidopropyl]dimethylammonio)-2-hydroxy-1-propanesulfonate), and Sulfobetaine 3-10 ([…]-N,N-dimethyl-3-ammonio-1-propanesulfonate)]. Detergents were obtained from Sigma, Fluka and Aldrich.
L929 cells (ATCC CCL-1; 1.5×10^5 cells/ml) in F12/DMEM (Hyclone, SH30023) containing 10% horse serum (Hyclone, SH30074) were frozen and thawed for four cycles to create a cell lysate. Then 50 μl of stock detergent solutions [10%, 5.0%, 1.0%, and 0.5% (w/v)] were separately added to 450 μl cell lysate, creating a final detergent concentration in the cell lysate sample of 1.0%, 0.5%, 0.1%, and 0.05%, respectively (these percentage values are those used in Tables D and E herein below). Control samples contained either lysate only or 1.0 μM ATP in 15 mM HEPES buffer (pH 7.5). All samples were incubated at 22° C. (room temperature) for the duration of the experiment.
At various timepoints, 20 μl from each sample/detergent mixture was added to a 96-well luminometer plate in triplicate, and then 100 μl of a solution (“luciferase-luciferin” or “L/L reagent”) containing 25 mM HEPES buffer (pH 7.5), 40 μg luciferase enzyme LucPpe2m146 (Promega, E140), 100 μM luciferin (Promega), and 10 mM MgSO4 was added to each well. The L/L reagent was stored at 4° C. for the duration of the experiment and then allowed to reach ambient temperature just before assaying. After mixing the contents of the plate, light output was measured with a Dynex MLX microtiter plate luminometer (Chantilly, Va.), 0.5 second reads per well with the first measurement taken five minutes after the detergent solution was combined with the sample. The average relative light units and the timepoint at which it was measured (rlu; Table D) and percent of remaining luciferase activity at the timepoint (Table E) are reported; controls were run with each set of experimental conditions as indicated. The cationic and anionic detergents were assayed on one day with one set of controls. The zwitterionic and nonionic detergents were assayed on a separate day with a separate set of controls. The DTAB at 0.5% was assayed on both days (1 and 2).
The experiment was performed as detailed in Example 1. The average relative light unit values and the percent of ATP remaining values are listed below in Table F and G respectively.
The log of the percent of ATP remaining after original timepoint values from Table E and Table G were plotted on the y axis against time (in minutes) on the x axis. The slope of the line generated by these values in the presence of detergent was divided by the slope of the line generated by the values in the absence of detergent (lysate control) resulting in the Relative ATPase Activity values listed below in Table H.
A relative activity value of 1.0 or greater indicates 100% cellular ATPase activity at the concentration of detergent tested. A relative activity value of 0.5 indicates a two-fold (or 50%) decrease in the level of cellular ATPase activity at the concentration of detergent tested when compared to the ATPase activity level in the absence of the detergent. A relative activity value of 0.2 indicates a five-fold (or 80%) decrease in the level of cellular ATPase activity at the concentration of detergent tested when compared to the ATPase activity level in the absence of the detergent.

O=P([O-])([O-])OP(=O)([O-])[O-].[Na+].[Na+].[Na+].[Na+] [Ppi, sodium pyrophosphate]
decrease of luminescence (LucPpe2m146): ten-fold

polyethylene glycol 400 dodecyl ether [THESIT]
Average Relative Light Unit Values ([1]; 0.05% detergent, 5 min): 5632.96 rlu | Percent ATP Remaining ([1]; 0.05% detergent, 5 min): 100% | Average Relative Light Unit Values ([1]; 0.05% detergent, 75 min): 1601.09 rlu | Percent ATP Remaining ([1]; 0.05% detergent, 75 min): 28.4% | Average Relative Light Unit Values ([1]; 0.05% detergent, 169 min): 623.38 rlu | Percent ATP Remaining ([1]; 0.05% detergent, 169 min): 11.1% | Average Relative Light Unit Values ([1]; 0.05% detergent, 222 min): 211.67 rlu | Percent ATP Remaining ([1]; 0.05% detergent, 222 min): 3.8% | Average Relative Light Unit Values ([1]; 0.05% detergent, 260 min): 110.15 rlu | Percent ATP Remaining ([1]; 0.05% detergent, 260 min): 2.0% | Relative ATPase Activity, slope det/slope lysate ([1]; 0.05 percent detergent): 1.295 | Slope (log percent ATP remaining vs time in minutes) ([1]; 0.05 percent detergent): −0.0068 | Average Relative Light Unit Values ([1]; 0.1% detergent, 5 min): 6022.32 rlu | Percent ATP Remaining ([1]; 0.1% detergent, 5 min): 100% | Average Relative Light Unit Values ([1]; 0.1% detergent, 75 min): 2654.97 rlu | Percent ATP Remaining ([1]; 0.1% detergent, 75 min): 44.1% | Average Relative Light Unit Values ([1]; 0.1% detergent, 169 min): 1509.07 rlu | Percent ATP Remaining ([1]; 0.1% detergent, 169 min): 25.1% | Average Relative Light Unit Values ([1]; 0.1% detergent, 222 min): 755.94 rlu | Percent ATP Remaining ([1]; 0.1% detergent, 222 min): 12.6% | Average Relative Light Unit Values ([1]; 0.1% detergent, 260 min): 447.44 rlu | Percent ATP Remaining ([1]; 0.1% detergent, 260 min): 7.4% | Relative ATPase Activity, slope det/slope lysate ([1]; 0.10 percent detergent): 0.850 | Slope (log percent ATP remaining vs time in minutes) ([1]; 0.10 percent detergent): −0.0045 | Average Relative Light Unit Values ([1]; 0.5% detergent, 5 min): 6392.75 rlu | Percent ATP Remaining ([1]; 0.5% detergent, 5 min): 100% | Average Relative Light Unit Values ([1]; 0.5% detergent, 75 min): 2304.48 rlu | Percent ATP Remaining ([1]; 0.5% detergent, 75 min): 36.0% | Average Relative Light Unit Values ([1]; 0.5% detergent, 169 min): 1122.24 rlu | Percent ATP Remaining ([1]; 0.5% detergent, 169 min): 17.6% | Average Relative Light Unit Values ([1]; 0.5% detergent, 222 min): 487.28 rlu | Percent ATP Remaining ([1]; 0.5% detergent, 222 min): 7.6% | Average Relative Light Unit Values ([1]; 0.5% detergent, 260 min): 240.72 rlu | Percent ATP Remaining ([1]; 0.5% detergent, 260 min): 3.8% | Relative ATPase Activity, slope det/slope lysate ([1]; 0.50 percent detergent): 1.065 | Slope (log percent ATP remaining vs time in minutes) ([1]; 0.50 percent detergent): −0.0056 | Average Relative Light Unit Values ([1]; 1.0% detergent, 5 min): 6204.02 rlu | Percent ATP Remaining ([1]; 1.0% detergent, 5 min): 100% | Average Relative Light Unit Values ([1]; 1.0% detergent, 75 min): 1979.43 rlu | Percent ATP Remaining ([1]; 1.0% detergent, 75 min): 31.9% | Average Relative Light Unit Values ([1]; 1.0% detergent, 169 min): 968.14 rlu | Percent ATP Remaining ([1]; 1.0% detergent, 169 min): 15.6% | Average Relative Light Unit Values ([1]; 1.0% detergent, 222 min): 416.45 rlu | Percent ATP Remaining ([1]; 1.0% detergent, 222 min): 6.7% | Average Relative Light Unit Values ([1]; 1.0% detergent, 260 min): 210.78 rlu | Percent ATP Remaining ([1]; 1.0% detergent, 260 min): 3.4% | Relative ATPase Activity, slope det/slope lysate ([1]; 1.00 percent detergent): 1.096 | Slope (log percent ATP remaining vs time in minutes) ([1]; 1.00 percent detergent): −0.0058
